Source: PMC9921329, “Semisynthetic Sesquiterpene Lactones Generated by the Sensibility of Glaucolide B to Lewis and Brønsted–Lowry Acids and Bases: Cytotoxicity and Anti-Inflammatory Activities” (Molecules, 2023)

How the values were obtained:
[1] = system: SK-MEL-28 (human melanoma cell line); assay: MTT cell viability / cytotoxicity, human melanoma cells; assay type: cell-based; conditions: for CC50: Homo sapiens, SK-MEL-28, 24 h, half-maximal cytotoxic concentration; for CC50 / Viability (%) SK-MEL-28: MTT; for Viability (%) SK-MEL-28: 24 h incubation, mean ± SD (n = 3), test concentration not given; for SI (selectivity index) SK-MEL-28: ratio of CC50 of non-tumoral HUVEC cells to CC50 of SK-MEL-28
Method: (§1) To evaluate the potential antitumoral activity of the compounds, the MTT [3-(4,5-dimethyl-2-thiazolyl)-2,5-diphenyl-2H-tetrazolium bromide] method was used to determine the cell viability of SK-MEL-28 (human melanoma cell line), NCI-H460 (human lung carcinoma cell line), SF295 (human glioblastoma cell line), and HUVEC (human umbilical vein endothelial cells) line. Cell viability analysis of murine macrophage J774A.1 was conducted using a resazurin-based cytotoxicity assay (Alamar blue®). All cell lines were acquired from the BCRJ (Rio de Janeiro Cell Bank, Federal University of Rio de Janeiro, Brazil). The cell lines were cultivated in RPMI-1640 or DMEM medium, supplemented with 1.5 g/L of sodium bicarbonate, 10 mM of HEPES, pH 7.4, 100 U/mL of penicillin G, 100 μg/mL of streptomycin, and 10% fetal calf serum at 37 °C in a humidified atmosphere consisting of 95% air and 5% CO2 cultures, and greater than 95% of viable cells in trypan blue exclusion tests were used for the experiments. Therefore, cells were seeded (1 × 10^4/well) in 96-well plates and incubated with increasing concentrations of the compounds for 24 h. After incubation, the former culture medium was replaced with a fresh culture medium with 5 mg/mL of MTT and with 0.1 mg/mL of resazurin for 2 h at 37 °C. MTT formazan crystals were dissolved in DMSO, and the absorbance of each well was measured at 540 nm, using a micro-well system reader. For the control group of each cell line, cells were incubated without the compounds and considered to have 100% cell viability. MTT formazan crystals were dissolved in DMSO, and absorbance was measured at 540 nm using a microplate reader (ELX800, Biotek, Winooski, VT, USA). The half-maximal cytotoxic concentration (CC50) values were calculated from a Hill concentration–response curve. Results were expressed as the mean ± SD of three experiments. The selectivity index (SI) was calculated via the ratio between the CC50 of non-tumoral cells and the tumoral cell lines. […] For the resazurin assay, fluorescence was measured at 1 h intervals using a plate multi-reader (Infinite Multireader m200 Tecan) at 530–590 nm. Nonlinear regression of each fraction versus percentage cell viability was performed to obtain a 10% toxicity concentration (a concentration causing 90% cell viability) using GraphPad Prism 8.0 software (GraphPad Software, San Diego, CA, USA).

[2] = MTT cytotoxicity, non-tumoral endothelial cells; assay type: cell-based, human; conditions: human, HUVEC cells (non-tumoral), pH 7.4
Method: as §1

[3] = system: NCI-H460 (human lung carcinoma cell line); assay: MTT cell viability, human lung carcinoma cells; assay type: cell-based; conditions: 24 h incubation, mean ± SD (n = 3), test concentration not given
Method: as §1

[4] = system: SF295 (human glioblastoma cell line); assay: MTT cell viability, human glioblastoma cells; assay type: cell-based; conditions: 24 h incubation, mean ± SD (n = 3), test concentration not given
Method: as §1

SMILES	CC50 [1] [µM]	Viability (%) SK-MEL-28 [1] [%]	SI (selectivity index) SK-MEL-28 [1]	CC50 at 24 h [2] [µM]	Viability (%) NCI-H460 [3] [%]	Viability (%) SF295 [4] [%]
CC(=O)OCC1=C2/C(=C\C3(C)CC=C(O3)C(C)(OC(C)=O)CC2OC(C)=O)OC1=O (stereo not drawn) [Compound 7b, 8,10,13-triacetoxy-1(4)-epoxy-germacra-1(2),5(6),7(11)-trien-6(12)-olide]	11.2	16.0 ± 2.6	2.5	27.8	73.2 ± 1.0	83.3 ± 1.2
CC(=O)OCC1=C2C(OC(C)=O)CC(C)(OC(C)=O)C3(O)CCC(C)(O)C(OC(C)=O)C23OC1=O (stereo not drawn) [Compound 3, 1,4-dihydroxy-5,8,10,13-tetraacetoxycadin-7(11)-en-6,12-olide]		91.1 ± 1.7			88.4 ± 3.4	86.1 ± 2.3
C=C1C(=O)OC2C(O)C3(C)CCC(OC(C)=O)(O3)C3(C)CC(OC(C)=O)C12O3 (stereo not drawn) [Compound 8, 1,8-diacetoxy-1(4),7(10)-diepoxy-5-hydroxygermacr-11(13)-en-6(12)-olide]		66.9 ± 3.5			87.3 ± 1.6	82.0 ± 4.7
COCC1=C2C(OC(C)=O)CC(C)(OC(C)=O)C3(O)CCC(C)(O)C(OC(C)=O)C23OC1=O (stereo not drawn) [Compound 2, 13-O-methylvernojalcanolide-8-O-acetate]		87.1 ± 2.6			91.8 ± 3.6	86.8 ± 6.3
C=C1C(=O)OC2C(O)C(C)(O)CC3C(=O)C(C)(O)CC(OC(C)=O)C132 (stereo not drawn) [Compound 9, 8-acetoxy-vernomargolide]		74.5 ± 4.9			84.9 ± 0.4	85.2 ± 2.8
CC(=O)OCC1=C2C(OC(C)=O)CC(C)(OC(C)=O)C(=O)CCC3(C)OC3C2OC1=O (stereo not drawn) [Compound 1, glaucolide B]		82.6 ± 4.1			85.1 ± 4.6	88.0 ± 4.8
C=C1C(=O)OC2C(OC(C)=O)C3(C)CC4C12C(OC(C)=O)CC(C)(O)C4(O)O3 (stereo not drawn) [Compound 5, 5,8,10-triacetoxy-2-epi-vernomargolide-1,4-cyclosemiacetal]		95.3 ± 4.1			100.3 ± 5.5	95.6 ± 3.9
CC(=O)OCC1=C2C(OC(C)=O)CC(C)(OC(C)=O)C3(O)CCC(C)(O3)C(=O)C2(O)OC1=O (stereo not drawn) [Compound 7c]		79.2 ± 6.4			85.7 ± 1.6	88.6 ± 4.8
CC(=O)OCC1=C2/C(=C\C3(C)CCC(O)(O3)C(C)(O)CC2OC(C)=O)OC1=O (stereo not drawn) [Compound 12, diacetylpiptocarphol, reference compound]	3.8	9.0 ± 0.5	3.3	12.6	63.8 ± 6.9	80.4 ± 3.3
